Assay results as given in patent publication US4537769A (priority 1982, dated 1985).
Like-named read-outs stand apart in the source and are kept apart here.

Test system: H7N1 neuraminidase
Type: biochemical, influenza virus
Settings: for Units of Activity: 37° C. for 24 hours; for Neuraminidase Activity-24 Hrs Post 37° C.: H7N1 vaccine
[1] = H7N1 vaccine with additive at .02%
[2] = H7N1 vaccine with additive at .03%
[3] = H7N1 vaccine with additive at .04%
[4] = H7N1 vaccine with additive at .05%
[5] = H7N1 vaccine with additive at .07%

## NCC(=O)O [Glycine]
[1]
  Units of Activity: 8.5 Nanomoles of N--acetyl neurami

## CC(C)[C@H](N)C(=O)O [Valine]
H7N1 vaccine with additive at .06%
  Units of Activity: 6.7 Nanomoles of N--acetyl neurami

## CSCC[C@H](N)C(=O)O [Methionine]
[1]
  Units of Activity: 8.9 Nanomoles of N--acetyl neurami

## N[C@@H](Cc1ccc(O)cc1)C(=O)O [Tyrosine]
[2]
  Units of Activity: 4.4 Nanomoles of N--acetyl neurami

## N[C@@H](Cc1c[nH]cn1)C(=O)O [Histidine]
[1]
  Units of Activity: 13.1 Nanomoles of N--acetyl neurami
No. 1: Histidine 0.02 % w/v
  Neuraminidase Activity-24 Hrs Post 37° C.: 13.0
No. 2: Histidine 0.05 % w/v
  Neuraminidase Activity-24 Hrs Post 37° C.: 17.3
No. 3: Histidine 0.09 % w/v
  Neuraminidase Activity-24 Hrs Post 37° C.: 23.8
No. 4: Histidine 0.13 % w/v
  Neuraminidase Activity-24 Hrs Post 37° C.: 27.9

## N[C@@H](Cc1ccccc1)C(=O)O [Phenylalanine]
[3]
  Units of Activity: 9.1 Nanomoles of N--acetyl neurami

## N[C@@H](CO)C(=O)O [Serine]
[4]
  Units of Activity: 9.1 Nanomoles of N--acetyl neurami

## N[C@@H](Cc1c[nH]c2ccccc12)C(=O)O [Tryptophan]
H7N1 vaccine with additive at .01%
  Units of Activity: 10.4 Nanomoles of N--acetyl neurami

## N[C@@H](CC(=O)O)C(=O)O [Aspartic Acid]
[5]
  Units of Activity: 5.9 Nanomoles of N--acetyl neurami

## O=C(O)[C@@H]1CCCN1 [Proline]
H7N1 vaccine with additive at .09%
  Units of Activity: 12.3 Nanomoles of N--acetyl neurami
No. 5: Proline 0.09 % w/v
  Neuraminidase Activity-24 Hrs Post 37° C.: 12.3
No. 6: Proline 0.18 % w/v
  Neuraminidase Activity-24 Hrs Post 37° C.: 17.5
No. 7: Proline 0.36 % w/v
  Neuraminidase Activity-24 Hrs Post 37° C.: 26.2
No. 8: Proline 0.54 % w/v
  Neuraminidase Activity-24 Hrs Post 37° C.: 30.7

## CC(C)C[C@H](N)C(=O)O [Leucine]
H7N1 vaccine with additive at .08%
  Units of Activity: 7.3 Nanomoles of N--acetyl neurami

## NCCCC[C@H](N)C(=O)O [Lysine]
[5]
  Units of Activity: 8.5 Nanomoles of N--acetyl neurami

## CC[C@H](C)[C@H](N)C(=O)O [Isoleucine]
[4]
  Units of Activity: 5.2 Nanomoles of N--acetyl neurami

## C[C@@H](O)[C@H](N)C(=O)O [Threonine]
[3]
  Units of Activity: 6.7 Nanomoles of N--acetyl neurami

## N[C@@H](CCC(=O)O)C(=O)O [Glutamic Acid]
H7N1 vaccine with additive at .18%
  Units of Activity: 4.5 Nanomoles of N--acetyl neurami

## C[C@H](N)C(=O)O [Alanine]
[2]
  Units of Activity: 9.0 Nanomoles of N--acetyl neurami
